In patent US20020086278A1, “CHROMOGENIC MEDIA CONTAINING BLOOD OR HEMIN” (priority 1999, published 2002):
Read-outs that look alike come from different tables or passages of the source. Each block holds one compound with its values, some of them ahead of it.

Tests used:
[1] = Color contrast of chromogen on blood plate
[2] = Precipitate of chromogen on pre-plated media; type: physicochemical; conditions: 50 μl DMSO solution on pre-plated media
Procedure: 50 μl of each chromogen solution was added to the surface of each of the following pre-plated media (one chromogen solution per plate):
The solution was dispersed using a spreader and allowed to dry 3-4 hours in a hood.

Group B Strep. 12386 = experiment: Example 1: growth and colony color on plates surface-spread with chromogen; type: cell-based; conditions: for Growth: Group B Strep 12386
[3] = tested on: Streptococcus pneumoniae 6303; experiment: as above; type: cell-based
S. epidermidis 12228 = experiment: as above; type: cell-based; conditions: Summary of Table I; S. epidermidis 12228
[4] = tested on: bacterial test strains of Example 1; experiment: Example 1: inhibitory effect over all test strains; type: cell-based; conditions: Example 1, all test strains
S. aureus 25923 = experiment: Example 2: effect of incubation conditions on colony color formation; type: cell-based, Staphylococcus aureus
N. sicca 29193 [5] = experiment: as above; type: cell-based
[6] = tested on: Branhamella catarrhalis 25238; experiment: Example 1: growth and colony color on plates surface-spread with chromogen; type: cell-based; conditions: for Growth: B. catt 25258
N. gonorrhoeae 35201 = experiment: as above; type: cell-based; conditions: Summary of Table I; N. gonorrhoeae 35201
[7] = tested on: Staphylococcus aureus 25923; experiment: as above; type: cell-based; conditions: S. aureus 25923
[8] = tested on: Gardnerella vaginalis 14019; experiment: as above; type: cell-based; conditions: Summary of Table I; G. vaginalis 14014
N. sicca 29193 [9] = experiment: as above; type: cell-based
Candida albicans (caal) = experiment: Example 3: colony color on chromogenic TSA II with 5% sheep blood (chromogen in medium); type: cell-based; conditions: for Colony Color: caal 10231, 24 h
[10] = tested on: Branhamella catarrhalis (brca); experiment: as above; type: cell-based; conditions: for Colony Color: CO2, 21 h
S. milleri (stmi) = experiment: as above; type: cell-based
S. pneumoniae (stpn) = experiment: as above; type: cell-based
[11] = tested on: Streptococcus agalactiae (stag); experiment: as above; type: cell-based
[12] = tested on: Aeromonas hydrophilia (aehy); experiment: as above; type: cell-based; conditions: for Colony Color: CO2, 21 h
[13] = tested on: Serratia marcescens (sema); experiment: as above; type: cell-based
milu 9341 = experiment: as above; type: cell-based; conditions: CO2, 21 h
[14] = tested on: Klebsiella pneumoniae (klpn); experiment: as above; type: cell-based
cakr 34135 = experiment: as above; type: cell-based; conditions: CO2, 21 h
[15] = tested on: Pseudomonas aeruginosa (psae); experiment: as above; type: cell-based; conditions: for Colony Color: CO2, 21 h
55 strains = experiment: Example 3: color, hemolytic activity and growth over all 55 strains; type: cell-based; conditions: chromogenic TSA II
From the text: Steers, E. et al., Antibiot.

[16] = tested on: Citrobacter freundii (cifr); experiment: Example 3: colony color on chromogenic TSA II with 5% sheep blood (chromogen in medium); type: cell-based
[17] = tested on: Staphylococcus Coag Neg (step); experiment: as above; type: cell-based; conditions: for Colony Color: 21 h
[18] = tested on: E. coli (non-O157) (esco); type: cell-based
Salmonella spp. (sasp) = type: cell-based; conditions: for Colony Color: CO2, 21 h
[19] = tested on: Staphylococcus aureus (stau); experiment: Example 3: colony color on chromogenic TSA II with 5% sheep blood (chromogen in medium); type: cell-based
[20] = tested on: Entercoccus faecalis (enfa); experiment: as above; type: cell-based
S pyogenes (stpy) = experiment: as above; type: cell-based; conditions: for Colony Color: 21 h
E. faecium (enfu) = experiment: as above; type: cell-based; conditions: for Colony Color: enfu 49032, 21 h
[21] = chromogenic TSA II with 5% Sheep Blood, 0.1 g/l, 2 strains tested
[22] = chromogenic TSA II with 5% Sheep Blood, 0.1 g/l, 6 strains tested
[23] = chromogenic TSA II with 5% Sheep Blood, 0.1 g/l, 3 strains tested
[24] = chromogenic TSA II with 5% Sheep Blood, 0.1 g/l, 1 strain tested
[25] = chromogenic TSA II with 5% Sheep Blood, 0.1 g/l, 5 strains tested

Compound: Oc1c[nH]c2ccc(Br)c(Cl)c12 [5-Bromo-4-chloro-3-indoxyl]
Absorption max (nm) [1]: 615 nm

Compound: O=C([O-])[C@H]1O[C@@H](Oc2c[nH]c3ccc(Br)c(Cl)c23)[C@H](O)[C@@H](O)[C@@H]1O.[Na+] [X-Glucuro(s), 5-Br-4-Cl-3-indolyl-β-D-glucuronide (sodium salt)]
Precipitate when spread / placed on the plated media [2]: remained clear

Compound: 5-Br-4-Cl-3-indolyl-caprylate [X-Cap]
Growth (Group B Strep. 12386; Choc II): <<
Substrates Producing Growth Inhibition (Group B Strep. 12386; Summary of Table I, Group B Strep. 12386): Slight inhib. w/ X-
Growth (Group B Strep. 12386; TSA II 5SB): <
Substrates Producing Growth Inhibition ([3]; Summary of Table I, S. pneumoniae 6303): X-Cap
Growth ([3]; TSA II 5SB, S. pneu: 6303): <
Substrates Producing Growth Inhibition (S. epidermidis 12228): X-Cap
Inhibitory effect [4]: most inhibitory effect
Colony Color (S. aureus 25923): blue (l)
Colony Color (N. sicca 29193 [5]): blue (m)
Growth ([6]; Choc II): <
Substrates Producing Growth Inhibition ([6]; Summary of Table I, B. catarrhalis 25238): X-Cap
Growth ([6]; TSA II 5SB): <
Substrates Producing Growth Inhibition (N. gonorrhoeae 35201): X-Cap
Color ([7]; Choc II): turquoise
Substrates Producing Color ([7]; Summary of Table I): X-Cap
Color ([7]; TSA II 5SB): turquoise
Color ([7]; TSA Plain): turquoise
Substrates Producing Growth Inhibition [8]: X-Cap
Color (N. sicca 29193 [9]; Substrate on Choclate II Agar, N. sicca. 29193): blue
Substrates Producing Color (N. sicca 29193 [9]; Summary of Table I, N. sicca 29193): X-cap

Compound: O=S(=O)([O-])Oc1c[nH]c2ccc(Br)c(Cl)c12.[K+] [X-Sulf, 5-Br-4-Cl-3-indolyl-sulfate (Potassium salt)]
Colony Color (Candida albicans (caal); CO2): 0
Colony Color (Candida albicans (caal); air): 0
Colony Color (Summary) (Candida albicans (caal); [21]): 0
Colony Color ([10]; brca 25238): 0
Colony Color ([10]; brca 25240): 0
Colony Color (Summary) [10, 21]: 0
Colony Color (Summary) (S. milleri (stmi); [21]): 0
Colony Color (S. milleri (stmi); stmi 6249, air, 21 h): 0
Colony Color (Summary) (S. pneumoniae (stpn); [22]): 0
Colony Color (S. pneumoniae (stpn); stpn 1259, CO2, 21 h): 0
Colony Color (S. pneumoniae (stpn); stpn 1260, CO2, 21 h): 0
Colony Color (S. pneumoniae (stpn); stpn 1628, CO2, 21 h): 0
Colony Color (S. pneumoniae (stpn); stpn 6303, CO2, 24 h): 0
Colony Color (S. pneumoniae (stpn); stpn 6303, air, 24 h): 0
Colony Color (S. pneumoniae (stpn); stpn 6305, CO2, 24 h): 0
Colony Color (S. pneumoniae (stpn); stpn 6305, air, 24 h): 0
Colony Color (Summary) [11, 23]: 0
Colony Color ([11]; stag 4768, CO2, 21 h): 0
Colony Color ([11]; stag 4768, air, 21 h): 0
Colony Color ([11]; stag 12386, CO2, 21 h): 0
Colony Color ([11]; stag 12386, CO2, 24 h): 0
Colony Color ([11]; stag 12386, air, 24 h): 0
Colony Color ([12]; aehy 7965): 0
Colony Color ([12]; aehy 7966): 0
Colony Color ([12]; aehy 49847): 0
Colony Color (Summary) [12, 23]: 0
Colony Color (Summary) [13, 24]: 0
Colony Color ([13]; sema 13880, CO2, 21 h): 0
Colony Color (milu 9341): 0
Colony Color (Summary) [14, 23]: 0
Colony Color ([14]; klpn 13883, CO2, 21 h): 0
Colony Color ([14]; klpn 33495, CO2, 24 h): 0
Colony Color ([14]; klpn 33495, air, 24 h): 0
Colony Color ([14]; klpn 33606, CO2, 21 h): 0
Colony Color (cakr 34135): 0
Colony Color (Summary) [15, 23]: 0
Colony Color ([15]; psae 9027): 0
Colony Color ([15]; psae 15442): 0
Colony Color ([15]; psae 33607): 0
Activity (color) for most organisms (55 strains): inactive
Colony Color ([16]; One strain of Citrobacter): grey blue
Colony Color (Summary) [16, 21]: +
Colony Color ([16]; cifr 8454, CO2, 21 h): 0
Colony Color ([16]; cifr 33128, CO2, 21 h): gb
Colony Color (Summary) [17, 25]: 0
Colony Color ([17]; step 12228, CO2): 0
Colony Color ([17]; step 12228, air): 0
Colony Color ([17]; step cdc1, CO2): 0
Colony Color ([17]; step cdc1, air): 0
Colony Color ([17]; step cdc2, CO2): 0
Colony Color ([17]; step cdc2, air): 0
Colony Color ([17]; step cdc3, CO2): 0
Colony Color ([17]; step cdc3, air): 0
Colony Color ([17]; step cdc4, CO2): 0
Colony Color ([17]; step cdc4, air): 0
Colony Color (Summary) [18, 23]: 0
Colony Color ([18]; esco 11775, CO2, 21 h): 0
Colony Color ([18]; esco 25922, CO2, 24 h): 0
Colony Color ([18]; esco 25922, air, 24 h): 0
Colony Color ([18]; esco 33605, CO2, 21 h): 0
Colony Color (Summary) (Salmonella spp. (sasp); [21]): 0
Colony Color (Salmonella spp. (sasp); saty 19430): 0
Colony Color (Salmonella spp. (sasp); satym 14028): 0
Colony Color (Summary) [19, 25]: 0
Colony Color ([19]; stau 1006, CO2, 21 h): 0
Colony Color ([19]; stau 1007, CO2, 21 h): 0
Colony Color ([19]; stau 1008, CO2, 21 h): 0
Colony Color ([19]; stau 1009, CO2, 21 h): 0
Colony Color ([19]; stau 25923, CO2, 24 h): 0
Colony Color ([19]; stau 25923, air, 24 h): 0
Colony Color (Summary) [20, 22]: 0
Colony Color ([20]; enfa 597, CO2, 21 h): 0
Colony Color ([20]; enfa 597, air, 21 h): 0
Colony Color ([20]; enfa 10741, CO2, 21 h): 0
Colony Color ([20]; enfa 10741, air, 21 h): 0
Colony Color ([20]; enfa 12953, CO2, 21 h): 0
Colony Color ([20]; enfa 12953, air, 21 h): 0
Colony Color ([20]; enfa 14506, CO2, 21 h): 0
Colony Color ([20]; enfa 14506, air, 21 h): 0
Colony Color ([20]; enfa 29212, CO2, 21 h): 0
Colony Color ([20]; enfa 29212, CO2, 24 h): 0
Colony Color ([20]; enfa 29212, air, 21 h): 0
Colony Color ([20]; enfa 29212, air, 24 h): 0
Colony Color (Summary) (S pyogenes (stpy); [22]): 0
Colony Color (S pyogenes (stpy); stpy 1027, CO2): 0
Colony Color (S pyogenes (stpy); stpy 1028, CO2): 0
Colony Color (S pyogenes (stpy); stpy 1029, CO2): 0
Colony Color (S pyogenes (stpy); stpy 1030, CO2): 0
Colony Color (S pyogenes (stpy); stpy 19615, CO2): 0
Colony Color (S pyogenes (stpy); stpy 19615, air): 0
Colony Color (S pyogenes (stpy); stpy 49117, CO2): 0
Colony Color (S pyogenes (stpy); stpy 49117, air): 0
Colony Color (S pyogenes (stpy); stpy 51339, CO2): 0
Colony Color (S pyogenes (stpy); stpy 51339, air): 0
Colony Color (Summary) (E. faecium (enfu); [24]): 0
Colony Color (E. faecium (enfu); CO2): 0
Colony Color (E. faecium (enfu); air): 0

Absorption max (nm) [1]: 540 nm
Compound: Oc1c[nH]c2cc(Cl)ccc12 [6-chloro-3-indoxyl]
